In ChEMBL document CHEMBL4382223, “Design, synthesis and biological evaluation of anthranilamide derivatives as potential factor Xa (fXa) inhibitors” (Bioorg Med Chem, 2018):
One block for each molecule: values may come before it. Active and inactive are the calls of the source. The rule behind the calls is not given here.

Assays:
[1] = organism: Homo sapiens; test: Selectivity ratio of IC50 for human factor 9a to IC50 for human factor Xa
[2] = organism: Homo sapiens; test: Selectivity ratio of IC50 for human trypsin to IC50 for human factor Xa
[3] = tested on: Plasma; test: Anticoagulant activity in citrated rabbit plasma assessed as concentration required to double prothrombin time after 10 mins by coagulometric analysis; assay type: functional, Oryctolagus cuniculus
[4] = target: Trypsin (Homo sapiens, UniProt P07477+P07478+P35030); test: Inhibition of human trypsin preincubated for 30 mins followed by substrate addition and measured for 20 mins; assay type: protein assay
[5] = organism: Homo sapiens; test: Selectivity ratio of IC50 for human factor 7a to IC50 for human factor Xa
[6] = target: T1, Coagulation factor VII (Homo sapiens, UniProt P08709); test: Inhibition of human factor 7a preincubated for 30 mins followed by substrate addition and measured for 20 mins
T1 sequence (P08709 whole entry): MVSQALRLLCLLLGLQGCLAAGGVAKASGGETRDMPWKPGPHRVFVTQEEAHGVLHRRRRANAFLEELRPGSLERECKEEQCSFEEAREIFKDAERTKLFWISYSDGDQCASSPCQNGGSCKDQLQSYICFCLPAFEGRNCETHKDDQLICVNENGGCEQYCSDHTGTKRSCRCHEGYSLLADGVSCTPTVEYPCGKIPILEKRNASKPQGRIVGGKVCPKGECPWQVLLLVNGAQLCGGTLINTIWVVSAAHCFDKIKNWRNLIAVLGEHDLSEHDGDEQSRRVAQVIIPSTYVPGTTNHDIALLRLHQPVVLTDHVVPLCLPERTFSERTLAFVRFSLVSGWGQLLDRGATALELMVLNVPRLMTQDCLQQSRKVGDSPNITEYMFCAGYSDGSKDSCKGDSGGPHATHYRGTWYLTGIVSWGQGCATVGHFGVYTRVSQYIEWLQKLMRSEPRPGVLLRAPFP

[7] = target: Prothrombin (Homo sapiens, UniProt P00734); test: Inhibition of human recombinant thrombin expressed in HEK293 cells using S-2238 as substrate preincubated for 30 mins followed by substrate addition and measured for 20 mins; assay type: single protein
[8] = target: Coagulation factor IX (Homo sapiens, UniProt P00740); test: Inhibition of human factor 9a preincubated for 30 mins followed by substrate addition and measured for 20 mins
[9] = tested on: Plasma; test: Anticoagulant activity in citrated rabbit plasma assessed as concentration required to double activated partial thromboplastin time after 10 mins by coagulometric analysis; assay type: functional, Oryctolagus cuniculus
[10] = organism: Homo sapiens; test: Selectivity ratio of IC50 for human recombinant thrombin expressed in HEK293 cells to IC50 for human factor Xa; assay type: cell-based
[11] = target: Coagulation factor X (Homo sapiens, UniProt P00742); test: Inhibition of human factor Xa using S-2222 as substrate preincubated for 30 mins followed by substrate addition and measured for 20 mins
[12] = tested on: Rattus norvegicus; test: Antithrombotic activity in rat model of arteriovenous shunt thrombosis assessed as reduction thrombus weight at 10 mg/kg, po dosed 90 mins before shunt was opened for 15 mins relative to untreated control; assay type: functional; design: scale not given: the % may be the effect or the level left
[13] = tested on: Rattus norvegicus; test: Antithrombotic activity in rat model of FeCl3-induced venous thrombosis assessed as reduction thrombus weight at 1 mg/kg, po dosed 60 mins before thrombus formation relative to untreated control; assay type: functional; design: scale not given: the % may be the effect or the level left
[14] = Elimination half life in Sprague-Dawley rat at 3 mg/kg, po by LC-MS analysis; assay type: ADME, organism-based; details: in vivo, read-out: beta t1/2 (converted)
[15] = Volume of distribution at steady state in Sprague-Dawley rat at 1 mg/kg, iv by LC-MS analysis; assay type: ADME, organism-based; details: in vivo
[16] = tested on: H9c2; test: Cytoprotective activity against hypoxia/reoxygenation-induced toxicity in rat H9c2 cells assessed as increase in cell viability at 1 to 10 uM by MTT assay; assay type: functional, cell-based
[17] = tested on: Rattus norvegicus; test: Antithrombotic activity in rat model of arteriovenous shunt thrombosis dosed orally 90 mins before shunt was opened for 15 mins; assay type: functional, organism-based
[18] = Cmax in Sprague-Dawley rat at 3 mg/kg, po by LC-MS analysis; assay type: ADME, organism-based; design: dose 3 mg/kg, route oral; details: in vivo
[19] = tested on: Rattus norvegicus; test: Antithrombotic activity in rat model of FeCl3-induced venous thrombosis assessed as reduction thrombus weight at 10 mg/kg, po dosed 60 mins before thrombus formation relative to untreated control; assay type: functional; design: scale not given: the % may be the effect or the level left
[20] = Oral bioavailability in Sprague-Dawley rat at 3 mg/kg by LC-MS analysis; assay type: ADME, organism-based; details: in vivo
[21] = Toxicity in rat assessed as prolongation of tail bleeding dosed orally 60 mins before tails of anesthetized rat were transected and measured over 30 mins; assay type: organism-based; details: in vivo, po, 0.5 h
[22] = Tmax in Sprague-Dawley rat at 3 mg/kg, po by LC-MS analysis; assay type: ADME, organism-based; details: in vivo
[23] = tested on: Rattus norvegicus; test: Antithrombotic activity in rat model of FeCl3-induced venous thrombosis dosed orally 60 mins before thrombus formation; assay type: functional, organism-based
[24] = tested on: Rattus norvegicus; test: Antithrombotic activity in rat model of FeCl3-induced venous thrombosis assessed as reduction thrombus weight at 5 mg/kg, po dosed 60 mins before thrombus formation relative to untreated control; assay type: functional; design: scale not given: the % may be the effect or the level left
[25] = tested on: Rattus norvegicus; test: Antithrombotic activity in rat model of arteriovenous shunt thrombosis assessed as reduction thrombus weight at 1 mg/kg, po dosed 90 mins before shunt was opened for 15 mins relative to untreated control; assay type: functional; design: scale not given: the % may be the effect or the level left
[26] = AUC (0 to infinity) in Sprague-Dawley rat at 3 mg/kg, po by LC-MS analysis; assay type: ADME, organism-based; design: dose 3 mg/kg, route oral, time infinity; details: in vivo
[27] = Elimination half life in Sprague-Dawley rat at 1 mg/kg, iv by LC-MS analysis; assay type: ADME, organism-based; details: in vivo
[28] = Plasma clearance in Sprague-Dawley rat at 1 mg/kg, iv by LC-MS analysis; assay type: ADME, organism-based; details: in vivo
[29] = AUC (0 to infinity) in Sprague-Dawley rat at 1 mg/kg, iv by LC-MS analysis; assay type: ADME, organism-based; design: dose 1 mg/kg, time infinity, route intravenous; details: in vivo
[30] = tested on: Rattus norvegicus; test: Antithrombotic activity in rat model of arteriovenous shunt thrombosis assessed as reduction thrombus weight at 5 mg/kg, po dosed 90 mins before shunt was opened for 15 mins relative to untreated control; assay type: functional; design: scale not given: the % may be the effect or the level left
[31] = Toxicity in rat assessed as prolongation of tail bleeding at 1 to 10 mg/kg, po dosed 60 mins before tails of anesthetized rat were transected and measured over 30 mins; assay type: organism-based; details: in vivo, 0.5 h

Chain of Coagulation factor IX (P00740 47-191 limits assumed): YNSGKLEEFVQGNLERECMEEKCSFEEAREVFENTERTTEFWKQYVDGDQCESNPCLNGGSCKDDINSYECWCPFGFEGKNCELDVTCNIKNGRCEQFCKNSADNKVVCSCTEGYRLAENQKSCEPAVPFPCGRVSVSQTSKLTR
Chain of Coagulation factor IX (P00740 227-461 limits assumed): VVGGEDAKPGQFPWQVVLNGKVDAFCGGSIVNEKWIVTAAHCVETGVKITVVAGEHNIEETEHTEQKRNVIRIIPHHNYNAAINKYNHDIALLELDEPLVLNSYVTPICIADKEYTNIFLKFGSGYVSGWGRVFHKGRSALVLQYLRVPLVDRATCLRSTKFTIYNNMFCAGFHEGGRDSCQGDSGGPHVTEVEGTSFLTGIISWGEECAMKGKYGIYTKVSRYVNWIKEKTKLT
Chain of Coagulation factor X (P00742 41-179 limits assumed): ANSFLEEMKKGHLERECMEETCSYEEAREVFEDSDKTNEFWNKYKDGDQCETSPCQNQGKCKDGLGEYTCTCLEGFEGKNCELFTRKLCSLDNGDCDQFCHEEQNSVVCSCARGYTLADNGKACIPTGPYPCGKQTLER
Chain of Coagulation factor X (P00742 235-488 limits assumed): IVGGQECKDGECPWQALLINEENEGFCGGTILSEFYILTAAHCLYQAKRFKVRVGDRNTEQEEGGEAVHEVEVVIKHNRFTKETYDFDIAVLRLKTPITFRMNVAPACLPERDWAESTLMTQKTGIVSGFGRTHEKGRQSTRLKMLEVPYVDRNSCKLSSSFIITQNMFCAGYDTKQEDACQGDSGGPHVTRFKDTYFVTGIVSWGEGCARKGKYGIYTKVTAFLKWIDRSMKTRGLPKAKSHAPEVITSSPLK

Ratio IC50 [1]: > 1000 | Ratio IC50 [2]: > 1000 | IC50 [4]: 54 µM | Ratio IC50 [5]: > 1000 | IC50 [6]: 11 µM | IC50 [7]: 32 µM | IC50 [8]: 42 µM | IC50 [11]: 0.01 µM
SMILES: COc1ccc(NC(=O)c2nc3c(s2)CN(C)CC3)c(C(=O)Nc2ccc(C)cn2)c1
2PT [3]: 5.6 µM | 2aPTT [9]: 2.2 µM | Ratio IC50 [10]: > 1000

IC50 [11]: 0.02 µM
SMILES: C#Cc1ccc(NC(=O)c2cc(OC)ccc2NC(=O)c2nc3c(s2)CN(C)CC3)cc1

IC50 [11]: 0.315 µM
SMILES: COc1ccc(NC(=O)c2nc3c(s2)CN(C)CC3)c(C(=O)Nc2cccc(Cl)c2)c1

IC50 [11]: 0.024 µM
SMILES: COc1ccc(NC(=O)c2nc3c(s2)CN(C)CC3)c(C(=O)Nc2ccc(F)cn2)c1

IC50 [11]: 0.234 µM
SMILES: COc1ccc(NC(=O)c2cc(OC)ccc2NC(=O)c2nc3c(s2)CN(C)CC3)cc1

half-life [14]: 9.6 h | Ratio IC50 [1]: > 1000 | Vdss [15]: 0.201 L/kg | Ratio IC50 [2]: > 1000 | Cmax [18]: 221 ng/mL | IC50 [4]: 9.1 µM | F [20]: 51.3% | Ratio IC50 [5]: > 1000 | Tmax [22]: 3.2 h | IC50 [6]: 12 µM | IC50 [7]: 4.2 µM | AUC [26]: 1160 ng·h/mL | IC50 [8]: 36 µM | beta t1/2 [27]: 8.8 h | CL [28]: 15.3 mL/min/kg | AUC [29]: 2258 ng·h/mL | IC50 [11]: 0.0035 µM
SMILES: COc1ccc(NC(=O)c2nc3c(s2)CN(C)CC3)c(C(=O)Nc2ccc(Cl)cn2)c1
Activity [12]: 67% | Activity [13]: 23% | Activity [16]: Active | Activity [17]: Dose-dependent effect | 2PT [3]: 0.8 µM | Activity [19]: 54% | Activity [21]: Dose-dependent effect | Activity [23]: Dose-dependent effect | Activity [24]: 36% | Activity [25]: 30% | 2aPTT [9]: 0.5 µM | Ratio IC50 [10]: > 1000 | Activity [30]: 50% | Activity [31]: Toxic

IC50 [11]: 0.653 µM
SMILES: COc1ccc(NC(=O)c2ccc(N3CCCC3=O)cc2)c(C(=O)Nc2ccc(Cl)cc2)c1

IC50 [11]: 1.39 µM
SMILES: COc1ccc(NC(=O)c2nc3c(s2)CN(C)CC3)c(C(=O)Nc2ccc(Cl)s2)c1

half-life [14]: 8.6 h | Vdss [15]: 0.191 L/kg | Cmax [18]: 146 ng/mL | F [20]: 30.2% | Tmax [22]: 2.6 h | IC50 [7]: 18 µM | AUC [26]: 571 ng·h/mL | beta t1/2 [27]: 7.8 h | CL [28]: 22.7 mL/min/kg | AUC [29]: 1832 ng·h/mL
SMILES: COc1ccc(NC(=O)c2ccc(C(=N)N(C)C)cc2)c(C(=O)Nc2ccc(Cl)cn2)c1 [BETRIXABAN]
Activity [12]: 61% | Activity [13]: 27% | Activity [16]: inactive | 2PT [3]: 2.4 µM | Activity [19]: 59% | Activity [21]: Dose-dependent effect | Activity [24]: 38% | Activity [25]: 24% | 2aPTT [9]: 1.1 µM | Activity [30]: 43% | Activity [31]: Toxic

IC50 [11]: 0.981 µM
SMILES: COc1cccc(NC(=O)c2cc(OC)ccc2NC(=O)c2nc3c(s2)CN(C)CC3)c1

IC50 [11]: 0.03 µM
SMILES: COc1ccc(NC(=O)c2nc3c(s2)CN(C)CC3)c(C(=O)Nc2ccc(C)cc2)c1

Ratio IC50 [1]: > 1000 | Ratio IC50 [2]: > 1000 | IC50 [4]: 18 µM | Ratio IC50 [5]: > 1000 | IC50 [6]: 4.7 µM | IC50 [7]: 7.1 µM | IC50 [8]: 26 µM | IC50 [11]: 0.0048 µM
SMILES: COc1ccc(NC(=O)c2nc3c(s2)CN(C)CC3)c(C(=O)Nc2ccc(Cl)cc2)c1
2PT [3]: 1.3 µM | 2aPTT [9]: 0.8 µM | Ratio IC50 [10]: > 1000

More lines, now with the values behind:

SMILES: COc1ccc(NC(=O)c2ccc(N3CCCCC3=O)cc2)c(C(=O)Nc2ccccc2OC)c1
IC50 [11]: 3.19 µM

SMILES: COc1ccc(NC(=O)c2ccc(N3CCCCC3=O)cc2)c(C(=O)Nc2ccc(C(C)(C)C)cc2)c1
IC50 [11]: 0.272 µM

SMILES: COc1ccc(NC(=O)c2cc(OC)ccc2NC(=O)c2ccc(N3CCCCC3=O)cc2)cc1
IC50 [11]: 0.513 µM

SMILES: COc1ccc(NC(=O)c2ccc(N3CCOCC3=O)cc2)c(C(=O)Nc2ccccc2OC)c1
IC50 [11]: 1.54 µM

SMILES: COc1ccc(NC(=O)c2ccc(N3CCCCC3=O)cc2)c(C(=O)Nc2ccc(Cl)cc2)c1
IC50 [11]: 0.246 µM

SMILES: COc1ccc(NC(=O)c2cc(OC)ccc2NC(=O)c2ccc(N3CCOCC3=O)cc2)cc1
IC50 [11]: 0.077 µM

SMILES: COc1ccc(NC(=O)c2ccc(N3CCCCC3=O)cc2)c(C(=O)Nc2ccc(F)cc2)c1
IC50 [11]: 1.08 µM

SMILES: COc1ccc(NC(=O)c2ccc(N3CCOCC3=O)cc2)c(C(=O)Nc2ccc(Cl)cc2)c1
IC50 [11]: 0.018 µM

SMILES: O=C(NC[C@H]1CN(c2ccc(N3CCOCC3=O)cc2)C(=O)O1)c1ccc(Cl)s1
Activity [16]: Active

SMILES: COc1ccc(NC(=O)c2ccc(N3CCOCC3=O)cc2)c(C(=O)Nc2ccc(C(C)(C)C)cc2)c1
IC50 [11]: 2.09 µM

SMILES: COc1ccc(NC(=O)c2ccc(N3CCCCC3=O)cc2)c(C(=O)Nc2cccc(F)c2)c1
IC50 [11]: 0.045 µM

SMILES: COc1ccc(NC(=O)c2ccc(-n3ccccc3=O)cc2)c(C(=O)Nc2ccc(Cl)cc2)c1
IC50 [11]: 0.179 µM
